Values of other authors, collected in patent US20220175648A1, “TOPICAL FORMULATIONS WITH LIPID-BASED CARRIERS” (KATE ROSE LLC, priority 2020, published 2022).

Columns and labels:
[1] = after just one year
[2] = tested on: UV B and reactive oxygen species; details: in vitro studies
collagen synthesis = details: versus L-ascorbic acid at the same dosage
age spots = details: 10% solution

break down of L-ascorbic acid [1] | Structure (SMILES) | protection against UV B and reactive oxygen species [2] | increase of collagen synthesis (collagen synthesis) | presence of age spots (age spots)
20% | O=C1O[C@H]([C@@H](O)CO)C(O)=C1O [L-ascorbic acid] | – | – | –
– | CCCCCCCCC(CCCCCC)C(=O)OC[C@H](OC(=O)C(CCCCCC)CCCCCCCC)[C@H]1OC(=O)C(OC(=O)C(CCCCCC)CCCCCCCC)=C1OC(=O)C(CCCCCC)CCCCCCCC (stereo partly shown) [THD, Tetrahexyldecyl ascorbate] | effective at protecting against UV B and reactive oxygen species | up to two times greater than L-ascorbic acid | decreases the presence of age spots
